Measurements as given in the supplement of paper PMC10307832.

Key:
Experiment in all cases: relative viability (nuclei count vs DMSO), 5 days (fraction); higher = more cells survive
Vorinostat + Lapatinib = compound: O=C(CCCCCCC(=O)Nc1ccccc1)NO [Vorinostat] + CS(=O)(=O)CCNCc1ccc(-c2ccc3ncnc(Nc4ccc(OCc5cccc(F)c5)c(Cl)c4)c3c2)o1 [Lapatinib] (partner 2 µM)
Procedure, shortened: (§1)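 Lung cancer cell lines, seeded in 1536-well plates, were treated the following day by pin tool with a single drug or with five library-drug doses (not always all listed) in √10 steps on top of a fixed anchor-drug dose. Cells were fixed and nuclei stained in one step after 5 days, and nuclei were counted. Relative viability is the nuclei count for treated wells divided by that for vehicle wells, reported as medians of duplicate plates.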

Vorinostat + Alpelisib = compound: O=C(CCCCCCC(=O)Nc1ccccc1)NO [Vorinostat] + Cc1nc(NC(=O)N2CCC[C@H]2C(N)=O)sc1-c1ccnc(C(C)(C)C(F)(F)F)c1 [Alpelisib] (partner 2 µM)
Procedure, shortened: as §1

Vorinostat + Dasatinib = compound: O=C(CCCCCCC(=O)Nc1ccccc1)NO [Vorinostat] + Cc1nc(Nc2ncc(C(=O)Nc3c(C)cccc3Cl)s2)cc(N2CCN(CCO)CC2)n1 [Dasatinib] (partner 0.075 µM)
Procedure, shortened: as §1

Vorinostat + Decitabine = compound: O=C(CCCCCCC(=O)Nc1ccccc1)NO [Vorinostat] + Nc1ncn([C@H]2C[C@H](O)[C@@H](CO)O2)c(=O)n1 [Decitabine] (partner 2 µM)
Procedure, shortened: as §1

Vorinostat + Olaparib = compound: O=C(CCCCCCC(=O)Nc1ccccc1)NO [Vorinostat] + O=C(c1cc(Cc2n[nH]c(=O)c3ccccc23)ccc1F)N1CCN(C(=O)C2CC2)CC1 [Olaparib] (partner 8 µM)
Procedure, shortened: as §1

| Cell Line | relative viability (Vorinostat + Lapatinib; first compound 0.253 µM) | relative viability (Vorinostat + Lapatinib; first compound 0.8 µM) | relative viability (Vorinostat + Lapatinib; first compound 2.53 µM) | relative viability (Vorinostat + Lapatinib; first compound 8 µM) | relative viability (Vorinostat + Alpelisib; first compound 0.253 µM) | relative viability (Vorinostat + Alpelisib; first compound 0.8 µM) | relative viability (Vorinostat + Alpelisib; first compound 2.53 µM) | relative viability (Vorinostat + Alpelisib; first compound 8 µM) | relative viability (Vorinostat + Dasatinib; first compound 0.253 µM) | relative viability (Vorinostat + Dasatinib; first compound 0.8 µM) | relative viability (Vorinostat + Dasatinib; first compound 2.53 µM) | relative viability (Vorinostat + Dasatinib; first compound 8 µM) | relative viability (Vorinostat + Decitabine; first compound 0.253 µM) | relative viability (Vorinostat + Decitabine; first compound 0.8 µM) | relative viability (Vorinostat + Decitabine; first compound 2.53 µM) | relative viability (Vorinostat + Decitabine; first compound 8 µM) | relative viability (Vorinostat + Olaparib; first compound 0.253 µM) | relative viability (Vorinostat + Olaparib; first compound 0.8 µM) | relative viability (Vorinostat + Olaparib; first compound 2.53 µM) | relative viability (Vorinostat + Olaparib; first compound 8 µM) |
| --- | --- | --- | --- | --- | --- | --- | --- | --- | --- | --- | --- | --- | --- | --- | --- | --- | --- | --- | --- | --- |
| NCI-H358 | 0.642 | 0.566 | 0.276 | 0.199 | 1.05 | 0.939 | 0.226 | 0.177 | 0.182 | 0.227 | 0.0991 | 0.0768 | 0.202 | 0.196 | 0.105 | 0.091 | 0.722 | 0.609 | 0.227 | 0.0636 |
| NCI-H460 | 1.35 | 0.742 | 0.0269 | 0.0111 | 0.609 | 0.351 | 0.0248 | 0.0089 | 0.577 | 0.423 | 0.134 | 0.0239 | 0.526 | 0.377 | 0.0496 | 0.0202 | 0.396 | 0.175 | 0.064 | 0.0336 |
| NCI-H520 | 1.12 | 0.668 | 0.319 | 0.116 | 1.02 | 0.588 | 0.487 | 0.139 | 0.219 | 0.206 | 0.179 | 0.17 | 0.581 | 0.474 | 0.297 | 0.157 | 0.299 | 0.264 | 0.184 | 0.116 |
| NCI-H596 | 1.26 | 0.971 | 0.781 | 0.307 | 0.871 | 0.482 | 0.278 | 0.248 | 0.634 | 0.448 | 0.385 | 0.202 | 1.07 | 0.902 | 0.68 | 0.36 | 0.725 | 0.512 | 0.326 | 0.204 |
| NCI-H647 | 1.49 | 0.947 | 0.163 | 0.0687 | 1.51 | 0.966 | 0.254 | 0.0332 | 0.18 | 0.233 | 0.0551 | 0.0337 | 0.356 | 0.286 | 0.137 | 0.0323 | 0.694 | 0.201 | 0.0618 | 0.0259 |
| NCI-H650 | 1.15 | 0.489 | 0.196 | 0.177 | 1.43 | 0.933 | 0.191 | 0.146 | 0.475 | 0.357 | 0.196 | 0.126 | 0.332 | 0.312 | 0.208 | 0.104 | 0.375 | 0.275 | 0.121 | 0.129 |
| NCI-H661 | 0.549 | 0.682 | 0.275 | 0.161 | 1.23 | 1.09 | 0.491 | 0.171 | 1.11 | 0.791 | 0.247 | 0.223 | 0.575 | 0.468 | 0.335 | 0.316 | 0.767 | 0.569 | 0.392 | 0.323 |
| NCI-H727 | 0.632 | 0.736 | 0.335 | 0.227 | 0.536 | 0.68 | 0.303 | 0.203 | 0.486 | 0.423 | 0.262 | 0.206 | 0.902 | 0.82 | 0.707 | 0.522 | 0.682 | 0.745 | 0.525 | 0.401 |
| NCI-H838 | 1.44 | 0.863 | 0.425 | 0.148 | 1.23 | 1.1 | 0.605 | 0.185 | 0.378 | 0.442 | 0.368 | 0.186 | 0.542 | 0.597 | 0.325 | 0.198 | 0.87 | 0.785 | 0.222 | 0.153 |
| NCI-H1355 | 1.02 | 0.792 | 0.693 | 0.157 | 1.1 | 0.691 | 0.321 | 0.145 | 0.825 | 0.503 | 0.298 | 0.169 | 0.393 | 0.354 | 0.253 | 0.143 | 0.797 | 0.565 | 0.211 | 0.128 |
| NCI-H1395 | 1.26 | 0.906 | 0.671 | 0.371 | 1.48 | 1.09 | 0.57 | 0.373 | 0.395 | 0.434 | 0.365 | 0.344 | 0.857 | 0.69 | 0.565 | 0.343 | 0.513 | 0.465 | 0.436 | 0.318 |
| NCI-H1437 | 0.846 | 0.476 | 0.153 | 0.0924 | 0.858 | 0.738 | 0.152 | 0.104 | 0.459 | 0.183 | 0.152 | 0.137 | 0.55 | 0.454 | 0.285 | 0.235 | 0.625 | 0.466 | 0.199 | 0.16 |
| NCI-H1651 | 1.07 | 0.532 | 0.108 | 0.0671 | 1.04 | 0.713 | 0.119 | 0.0787 | 0.415 | 0.195 | 0.0466 | 0.0608 | 0.58 | 0.477 | 0.202 | 0.0686 | 0.187 | 0.17 | 0.098 | 0.0473 |
| NCI-H1666 | 0.606 | 0.339 | 0.228 | 0.167 | 0.962 | 0.586 | 0.245 | 0.156 | 0.881 | 0.698 | 0.422 | 0.266 | 0.703 | 0.654 | 0.548 | 0.329 | 0.669 | 0.755 | 0.512 | 0.475 |
| NCI-H1734 | 1.33 | 0.993 | 0.678 | 0.162 | 0.714 | 0.7 | 0.518 | 0.137 | 0.608 | 0.624 | 0.39 | 0.111 | 0.548 | 0.444 | 0.31 | 0.0873 | 0.739 | 0.66 | 0.31 | 0.0928 |
| NCI-H1755 | 1.05 | 1.03 | 0.28 | 0.154 | 1.03 | 0.92 | 0.326 | 0.137 | 0.447 | 0.469 | 0.254 | 0.139 | 0.703 | 0.773 | 0.44 | 0.213 | 0.953 | 0.86 | 0.307 | 0.205 |
